Reference: article PMC12127091, “Targeting Cancer With Bifunctional Peptides: Mechanism of Cell Entry and Inciting Cell Death” (Cancer Science, 2025)
Where a SMILES comes first, the peptide text is derived from it. [ ]: non-standard residue; d: D form.

How the values were obtained:
SK‐BR‐3 = assay: Plasma membrane damage (LDH leakage, Annexin V binding); format: cell-based; details: SK‐BR‐3, 8 μM peptides, Figure 5a,b
Method: 7 × 10^3–10^4 cells were seeded in a 96‐well plate and left to recover overnight. The cells were treated with 8 μM of peptides and were harvested at two time points. The treated cells were harvested, and the supernatants were collected.
The cells were stained with FITC Annexin V and 7‐AAD (Biolegend) in Annexin V binding buffer (Becton, Dickinson and Company). The binding of Annexin V was checked using flow cytometry.
25 μL of the supernatant was used to check the presence of active lactate dehydrogenase using the CyQUANT LDH Cytotoxicity Assay Kit (Thermo Fisher Scientific) according to the manufacturer's instructions. The absorbance was measured at 490 and 680 nm.

[1] = tested on: Caki‐2, SK‐BR‐3, A‐704 and CCD18‐Co; assay: FITC‐peptide uptake by flow cytometry; format: cell-based; details: Caki‐2 and SK‐BR‐3, 5 μM FITC‐peptide, 1 h, Figure 2a
Method: 7 × 10^3–10^4 cells were seeded in a 96‐well plate. On the next day, the cells were incubated with 5 μM of FITC‐conjugated peptides. The cells were harvested at different time points and measured for their fluorescence intensity using BD FACSCanto II (Becton, Dickinson and Company, Franklin Lanes, NJ, USA). Dead cells were excluded by staining the cells with 7‐AAD dye (Biolegend, San Diego, CA, USA).

[2] = attributed to high polarity; cited from earlier work
Excerpt: (§1) Nonetheless, introducing this peptide to human sarcoma and melanoma cell lines at 1% of their inhibitory concentrations (IC50) was described to induce mitochondrial swelling p ...

human erythrocytes = details: cited from earlier work
Excerpt: as §1

SMILES	time after peptide addition at which major plasma membrane damage was detected (SK‐BR‐3) [h]	internalization (fluorescence intensity) of FITC‐peptides [1]	ability to cross the plasma membrane [2]	cytotoxicity towards human erythrocytes (human erythrocytes)
CC(C)C[C@H](NC(=O)[C@H](Cc1c[nH]c2ccccc12)NC(=O)[C@@H]1CCCN1C(=O)[C@H](CO)NC(=O)[C@H](Cc1ccc(O)cc1)NC(=O)[C@@H](N)C(C)C)C(=O)N[C@H](C(=O)NCC(=O)NCC(=O)N[C@H](CCCCN)C(=O)N[C@H](CC(C)C)C(=O)N[C@H](C)C(=O)N[C@H](CCCCN)C(=O)N[C@H](CC(C)C)C(=O)N[C@H](C)C(=O)N[C@H](CCCCN)C(=O)N[C@H](CCCCN)C(=O)N[C@H](CC(C)C)C(=O)N[C@H](C)C(=O)N[C@H](CCCCN)C(=O)N[C@H](CC(C)C)C(=O)N[C@H](C)C(=O)N[C@H](CCCCN)C(=O)O)[C@@H](C)O [TP2‐D‐Tox] (H-VYSPWLTGG[dK][dL][dA][dK][dL][dA][dK][dK][dL][dA][dK][dL][dA][dK]-OH)	≤ 3	higher cell penetration		
CC(C)C[C@H](N)C(=O)N[C@H](C(=O)N[C@H](C(=O)N[C@@H](CO)C(=O)N1CCC[C@H]1C(=O)N[C@@H](Cc1c[nH]c2ccccc12)C(=O)N[C@@H](Cc1ccc(O)cc1)C(=O)NCC(=O)NCC(=O)N[C@H](CCCCN)C(=O)N[C@H](CC(C)C)C(=O)N[C@H](C)C(=O)N[C@H](CCCCN)C(=O)N[C@H](CC(C)C)C(=O)N[C@H](C)C(=O)N[C@H](CCCCN)C(=O)N[C@H](CCCCN)C(=O)N[C@H](CC(C)C)C(=O)N[C@H](C)C(=O)N[C@H](CCCCN)C(=O)N[C@H](CC(C)C)C(=O)N[C@H](C)C(=O)N[C@H](CCCCN)C(=O)O)C(C)C)[C@@H](C)O [TP‐D‐Tox] (H-LTVSPWYGG[dK][dL][dA][dK][dL][dA][dK][dK][dL][dA][dK][dL][dA][dK]-OH)	≤ 3			
CC(C)C[C@H](NC(=O)[C@H](CCCCN)NC(=O)[C@H](C)NC(=O)[C@H](CC(C)C)NC(=O)[C@H](CCCCN)NC(=O)[C@H](CCCCN)NC(=O)[C@H](C)NC(=O)[C@H](CC(C)C)NC(=O)[C@H](CCCCN)NC(=O)[C@H](C)NC(=O)[C@H](CC(C)C)NC(=O)[C@@H](N)CCCCN)C(=O)N[C@@H](C)C(=O)N[C@@H](CCCCN)C(=O)O [Tox]			hardly able to cross the plasma membrane	considerably lower cytotoxicity
